Source: patent US8088924B2, “Pyridone derivatives having a binding activity to the cannabinoid type 2 receptor” (Shionogi & Co., Ltd., priority 2000, dated 2012)
pKi: −log10 of the molar value.

Columns and labels:
[1] = molecular target: T1, human CB1 receptor (Homo sapiens, UniProt P21554); test: Human CB1 receptor binding assay ([3H]CP55940, membranes of CB1R-expressing CHO cells); conditions: [3H]CP55940 0.5 nM
T1 construct: expressed in transfected cells
Protocol: Receptor binding assay was performed by incubating the membranes with each test compound and [^3H]CP55940 (at a final concentration of 0.5 nM: NEN Life Science Products) in the assay buffer (50 mM Tris-HCl, 1 mM EDTA, 3 mM MgCl2, pH 7.4) containing 0.5% bovine serum albumin (BSA) for 2 h at 25° C. The incubation mixture was filtered through 1% polyethylenimine-treated GF/C glass filter and washed with 50 mM Tris-HCl (pH 7.4) containing 0.1% BSA. The radioactivity was then counted with a liquid scintillation counter.
(§1) For the receptor binding assay of human CB1 receptor (CB1R), the stable CB1R-expressing CHO cells were prepared as described above, and the binding assay was performed using their membrane fractions.

[2] = molecular target: T2, human CB2 receptor (Homo sapiens, UniProt P34972); test: Human CB2 receptor binding inhibition ([3H]CP55940, membranes of CB2R-expressing CHO cells)
T2 construct: The coding region of human CB2 receptor (CB2R) cDNA (Munro etc, Nature, 1993, 365, 61-65) was inserted into the mammalian expression vector; expressed in transfected cells
T2 sequence (P34972 whole entry): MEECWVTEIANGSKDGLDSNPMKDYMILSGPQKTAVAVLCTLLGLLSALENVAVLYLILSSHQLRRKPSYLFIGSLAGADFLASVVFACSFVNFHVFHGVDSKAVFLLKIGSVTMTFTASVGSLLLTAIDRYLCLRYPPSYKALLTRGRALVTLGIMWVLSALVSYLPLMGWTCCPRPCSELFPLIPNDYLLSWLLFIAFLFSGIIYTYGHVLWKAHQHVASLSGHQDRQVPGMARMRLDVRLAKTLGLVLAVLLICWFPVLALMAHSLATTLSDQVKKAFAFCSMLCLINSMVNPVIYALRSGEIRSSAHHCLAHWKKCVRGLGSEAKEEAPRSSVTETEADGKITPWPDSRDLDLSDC
Protocol: The crude membrane fractions were prepared from the CB2R-expressing CHO cells. Receptor binding assay was performed by incubating the membranes with each test compound and [^3H]CP55940 (at a final concentration of 0.5 nM: NEN Life Science Products) in the assay buffer (50 mM Tris-HCl, 1 mM EDTA, 3 mM MgCl2, pH 7.4) containing 0.5% bovine serum albumin (BSA) for 2 h at 25° C. The incubation mixture was filtered through 1% polyethylenimine-treated GF/C glass filter and washed with 50 mM Tris-HCl (pH 7.4) containing 0.1% BSA. The radioactivity was then counted with a liquid scintillation counter.
as §1

T1 sequence (P21554 whole entry): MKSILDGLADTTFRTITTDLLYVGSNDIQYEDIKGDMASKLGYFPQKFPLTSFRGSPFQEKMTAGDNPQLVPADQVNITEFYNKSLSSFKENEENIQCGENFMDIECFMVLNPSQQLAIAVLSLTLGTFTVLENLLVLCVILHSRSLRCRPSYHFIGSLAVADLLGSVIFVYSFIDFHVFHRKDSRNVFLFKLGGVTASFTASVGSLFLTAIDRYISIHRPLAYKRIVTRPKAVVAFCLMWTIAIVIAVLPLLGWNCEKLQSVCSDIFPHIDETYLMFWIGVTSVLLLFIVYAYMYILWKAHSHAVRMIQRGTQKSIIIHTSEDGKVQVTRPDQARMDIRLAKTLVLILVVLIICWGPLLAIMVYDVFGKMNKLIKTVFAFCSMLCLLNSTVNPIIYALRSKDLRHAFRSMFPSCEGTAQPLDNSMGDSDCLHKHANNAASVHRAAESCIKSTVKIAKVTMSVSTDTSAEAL

Structure (SMILES) | melting point [°C] | pKi [1] | pKi [2]
CCCCn1c(C)c(C)cc(NC(=O)c2ccc(F)cc2)c1=O | 129 to 130 | – | –
Cc1ccc(Oc2nc3ccccc3o2)c(=S)n1C | 245 to 247 | – | –
CCCCn1c(C)c(C)cc(NC(=O)c2ccccc2Cl)c1=O [Example 5-005] | – | 6.41 | –
CCCCn1c2c(cc(C(=O)NCCc3ccc(N)cc3)c1=O)CCCC2 [Example 4-003] | – | 6.17 | 7.36
CCCCn1c(C)c(C)cc(NC(=O)c2ccccc2C)c1=O [Example 5-006] | – | 6.41 | –
CCn1c(C)c(C)cc(C(=O)NCc2ccccc2)c1=O | 117 | – | –
